For orientation: DC50 means the concentration at which degradation of the target reaches its halfway point. What is called GI50 is the concentration giving 50% growth inhibition.

From US12441733B2, “Substituted 2,4-dioxotetrahydropyrimidines as intermediates in the synthesis of bruton's tyrosine kinase inhibitors” (Novartis AG, priority 2018, dated 2025) come the findings set out here.

Common to all, as to assay type: cell-based
One assay deals with T1, BTK-GFP (Homo sapiens, UniProt Q06187+Q96SW2).
T1 construct: expressed in transfected cells; host or cells: HEK293A (Invitrogen R70507), lentiviral transduction with pLenti6-BTK-GFP-Ires-RFP, blasticidin selection
In words: BTK-GFP protein abundance flow cytometry assay in HEK293A cells. The settings on record: HEK293A BTK-GFP-iresRFP cells, 24 h; for DC50: GFP signal by flow cytometry, concentration at which 50% maximal degradation was observed; for BTK deg Amax: % protein remaining at the concentration at which maximum degradation is seen. As to the method: (§1) Compounds of the invention were tested in the following cellular assays. The terms in Table 2 are defined as follows: DC50 refers to the concentration at which 50% maximal degradation was observed; deg Amax is the extent of degradation and the value refers to the % protein remaining at the concentration at which maximum degradation is seen; ProI GI50 refers to the proliferation data and defines the concentration at which 50% growth inhibition was observed compared to the vehicle treated control at the end of the incubation time. TMD8 cells are BTK dependent and OCI-LY3 cells are BTK independent.
BTK-GFP and IKZF3-GFP protein abundance flow cytometry assay in HEK293A cells:
Degradation of BTK or IKZF3 was measured in HEK293A cells (Invitrogen R70507) expressing either BTK-GFP and RFP or IKZF3-GFP and RFP from a stably integrated bicistronic BTK-GFP-iresRFP or IKZF3-GFP-iresRFP construct, respectively. Reduction of the GFP signal measured by flow cytometry served as readout for BTK or IKZF3 degradation after degrader treatment.
i) Cloning of the pLenti6-BTK-GFP-1Res-RFP and IKZF3-GFP-Ires-RFP Sensor Vectors
The bicistronic BTK-GFP-iresRFP construct is based on a pLenti6-DEST vector backbone where GFP was introduced into the unique Xho1 site downstream of the destination cassette (DEST) and RFP was cloned behind an internal ribosomal entry site (Ires).
In detail, the sensor construct was engineered by replacing NanoLuciferase (NLuc) by GFP and FireFly luciferase (FF) by RFP from pLenti6-DEST-NLuc-Ires-FF.
The pLenti6-DEST-NLuc-Ires-FF sensor construct was cloned by replacing eGFP from pLenti6-DEST-ires-eGFP with a synthesized stuffer element (encoding Ires-FF with FF flanked by two Nhe1 restriction sites) using blunt end cloning replacing Ires-eGFP between the two PmII. To enable C-terminal tagging with NanoLuciferase (NLuc), NLuc was amplified from pNL1.1 (Promega #N1001) using linker primers with Xho1 sites for ligating into linearized pLenti6-DEST-Ires-FF using Xho1 digest resulting in the construct pLenti6-DEST-NLuc-Ires-FF.
The pLenti6-DEST-NLuc-Ires-FF served as base vector for cloning pLenti6-DEST-GFP-Ires-RFP using Gibson assembly to replace FF with RFP and NLuc with GFP. In a first round FF was replaced by RFP by amplifying RFP from a template using the following Gibson assembly linker primers (Gibson-Nhe1 RFPfw, […]gctagc[…] (SEQ ID NO: 1); Gibson-Nhe1 RFP-Stoprev, […]ctagc[…] (SEQ ID NO: 2)) to clone into pLenti6-DEST-NLuc-Ires-FF digested with Nhe1 and gel-purified to remove the FF fragment. The resulting pLenti6-DEST-NLuc-Ires-RFP vector served as the template to replace NLuc with GFP by amplifying GFP from a template using following Gibson assembly linker primers (Gibson-Xho1 GFPfw, […]c[…] (SEQ ID NO: 3); Gibson-Xho1 GFP-Stoprev, […] (SEQ ID NO: 4)) to clone into pLenti6-DEST-NLuc-Ires-RFP digested with Xho1 and gel-purified to remove the NLuc fragment. All Gibson assembly reactions were performed with Gibson assembly Master Mix (New England Biolabs NEB E261 IL) according to manufacturer's manual, resulting in the destination vector pLenti6-DEST-GFP-Ires-RFP to allow Gateway cloning. To enable gateway cloning and C-terminal GFP tagging of BTK, the BTK open reading frame (ORF) was first shuttled from a pcDNA-DEST40-BTK vector (Invitrogen library ID INV_20090504v1) into pDONR221 (Invitrogen 12536-017) vector using a gateway BP reaction according to the manufacturer's manual (Invitrogen 11789-013) resulting in the novel construct pENTR221-BTK. For C-terminal tagging the STOP codon was mutated to a leucine performing a mutagenesis reaction with the following primers (pENTR221-BTK Quikchange STOP-Leu fw, gtcatggatgaagaatccTTGaacccagctttcttgtac; pENTR221-BTK Quikchange STOP-Leu REVC, gtacaagaaagctgggttCAAggattcttcatccatgac) using the QuikChange Lightning mutagenesis kit (Agilent Technologies #210518) according to the manufacturer's manual, resulting in pENTR221-BTK (STOP-Leu). […]

A further assay relates to TMD8 cells. In words: Resazurin cell viability (proliferation) assay in TMD8 DLBCL cells. The settings on record: Homo sapiens, TMD8 cells (BTK dependent), 72 h, 50% growth inhibition vs vehicle, read-out: TMD8 Prol GI50. On the procedure: as §1
(§2) Cell Viability Assay in DLBCL (Diffuse Large B-Cell Lymphoma) Cells:
(§3) The effect of the BTK compounds on cell proliferation was measured by a Resazurin (Sigma, #R7017) based cell viability assay. TMD8 (BTK compound sensitive) and OCI-LY3 (BTK compound insensitive) cells were incubated for 72 h at 37° C. and 5% CO2 with the corresponding compound, Resazurin is a non-toxic, cell-permeable substrate that is virtually non-fluorescent. Upon entering living cells, Resazurin (Sigma, #R7017) is reduced to highly fluorescent Resorufin. The metabolic activity was assessed by measuring the fluorescence signal (ex. 530 nm; em. 600 nm).
(§4) TMD8 and OCI-Ly3 cells were seeded at day 0 in triplicates at a cell density of 1×10^4 cells per 150 μl/well in a 96-well plate (Costar #3904). Additional plates were prepared, in order to assess the basal metabolic activity of both cell lines at the beginning of the experiment. For these reference plates, Resazurin (Sigma, #R7017) was added to a final concentration of 13 μg/ml 3 h post seeding and was incubated for 2 h at 37° C. and 5% CO2. Following incubation, the fluorescent signal intensity of the 96-well plates was measured on a Mithras LB940 multimode plate reader at 530/600 nm (Berthold Technologies, Germanyl).
(§5) In parallel, 3 h post-seeding, test-plates were treated with compound at various concentrations, or with vehicle (DMSO) alone for 3 days. The compound addition to the plates was performed by using a HP D300 digital dispenser (TECAN, Switzerland). The compounds were tested in triplicate, 8-point serial dilution (1:4), with a start concentration of 10 μM for OCI-LY3 and 1 μM for the TMD8 cells, respectively. To assess the relative proliferation of the cells, Resazurin was added to each well directly to the medium to a final concentration of 13 μg/ml. The plates were incubated for 2 h at 37° C. and 5% CO2 to result in a 72 h endpoint. Following incubation, the fluorescent signal intensity of the 96-well plates were measured on a Mithras LB940 multimode plate reader at 530/600 nm (Berthold Technologies, Germanyl). The formation of Resorufin dye directly correlates with the number of metabolically active cells. For each triplicate treatment the mean and standard deviation were calculated and analyzed via curve fitting software to determine the respective compound concentration resulting in 50% growth inhibition (GI50) values. For each compound GI50 values were typically determined from at least 2 entirely independent experiments.
TMD8 cells were acquired through a license agreement with Tokyo Medical and Dental University, Japan. Cells are cultivated in MEM Alpha (BioConcept, #1-23F01-1, lot. LB04262P) supplemented with 10% FCS (HyClone, GE #SH30066.03, lot AB3217603), 2 mM L-Glutamine (BioConcept, #5-10K50-H, lot. LA03467P), 1% Pen/Strep (BioConcept, #4-01F00-H, lot. LB04235P).
Background: Alamar Blue is a resazurin reagent that responds to reducing activity.

A further assay concerns OCI-LY3 cells. In words: Resazurin cell viability (proliferation) assay in OCI-LY3 DLBCL cells. As to conditions: Homo sapiens, OCI-LY3 cells (BTK independent), 72 h, 50% growth inhibition vs vehicle, read-out: OCI-LY3 Prol GI50. As to the method: as §1, §2, §3, §4, §5
OCI-LY3 cells were acquired through a license agreement with University Health Network, Toronto, Canada. Cells are cultivated in RPM11640 media (Gibco, #61870-010, lot. 1894759), supplemented with 10% FCS (HyClone, GE #SH30066.03, lot AB217603), 2 mM L-Glutamine (BioConcept, #5-10K50-H, lot. LA03467P), 1 mM Sodium Pyruvate (BioConcept, #5-60F00-H, lot. LB10510P), 10 mM HEPES (Gibco, #15630-056, lot. 1854074), 1% Pen/Strep (BioConcept, #4-01F00-H, lot. LB04235P).

Where only a bound is given, the exact number is not on record here.

T1 sequence (Q06187 whole entry): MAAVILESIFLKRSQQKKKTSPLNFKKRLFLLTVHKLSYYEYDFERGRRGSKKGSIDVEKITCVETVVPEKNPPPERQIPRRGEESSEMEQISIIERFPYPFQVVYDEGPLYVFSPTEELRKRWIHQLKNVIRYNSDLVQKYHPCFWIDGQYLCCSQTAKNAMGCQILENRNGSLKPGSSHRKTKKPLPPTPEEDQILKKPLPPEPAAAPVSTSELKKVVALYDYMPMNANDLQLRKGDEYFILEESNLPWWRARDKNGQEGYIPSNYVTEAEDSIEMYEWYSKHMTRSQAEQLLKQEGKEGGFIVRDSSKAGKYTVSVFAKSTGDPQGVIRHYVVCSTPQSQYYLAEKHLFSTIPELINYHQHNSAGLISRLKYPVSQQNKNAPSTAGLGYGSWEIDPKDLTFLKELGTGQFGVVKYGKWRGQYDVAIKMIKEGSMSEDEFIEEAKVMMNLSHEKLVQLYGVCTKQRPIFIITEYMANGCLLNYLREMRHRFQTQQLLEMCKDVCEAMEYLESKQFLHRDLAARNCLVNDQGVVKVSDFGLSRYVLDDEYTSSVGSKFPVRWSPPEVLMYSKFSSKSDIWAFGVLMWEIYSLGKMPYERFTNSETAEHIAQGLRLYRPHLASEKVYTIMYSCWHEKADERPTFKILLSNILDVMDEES
T1 sequence (Q96SW2 whole entry): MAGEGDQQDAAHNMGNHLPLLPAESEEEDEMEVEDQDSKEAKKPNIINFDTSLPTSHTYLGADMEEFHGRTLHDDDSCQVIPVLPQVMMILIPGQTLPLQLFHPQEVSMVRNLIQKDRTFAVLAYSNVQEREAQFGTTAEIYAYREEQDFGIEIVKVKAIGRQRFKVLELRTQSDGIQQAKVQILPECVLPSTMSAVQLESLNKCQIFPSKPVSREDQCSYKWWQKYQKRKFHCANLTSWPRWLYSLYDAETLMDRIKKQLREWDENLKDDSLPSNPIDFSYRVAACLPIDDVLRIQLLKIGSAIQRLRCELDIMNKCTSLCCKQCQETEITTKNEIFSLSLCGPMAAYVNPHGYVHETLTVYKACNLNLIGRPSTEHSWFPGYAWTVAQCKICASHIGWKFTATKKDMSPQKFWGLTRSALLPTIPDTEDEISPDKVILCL
T1 sequence (Q16531 whole entry partner): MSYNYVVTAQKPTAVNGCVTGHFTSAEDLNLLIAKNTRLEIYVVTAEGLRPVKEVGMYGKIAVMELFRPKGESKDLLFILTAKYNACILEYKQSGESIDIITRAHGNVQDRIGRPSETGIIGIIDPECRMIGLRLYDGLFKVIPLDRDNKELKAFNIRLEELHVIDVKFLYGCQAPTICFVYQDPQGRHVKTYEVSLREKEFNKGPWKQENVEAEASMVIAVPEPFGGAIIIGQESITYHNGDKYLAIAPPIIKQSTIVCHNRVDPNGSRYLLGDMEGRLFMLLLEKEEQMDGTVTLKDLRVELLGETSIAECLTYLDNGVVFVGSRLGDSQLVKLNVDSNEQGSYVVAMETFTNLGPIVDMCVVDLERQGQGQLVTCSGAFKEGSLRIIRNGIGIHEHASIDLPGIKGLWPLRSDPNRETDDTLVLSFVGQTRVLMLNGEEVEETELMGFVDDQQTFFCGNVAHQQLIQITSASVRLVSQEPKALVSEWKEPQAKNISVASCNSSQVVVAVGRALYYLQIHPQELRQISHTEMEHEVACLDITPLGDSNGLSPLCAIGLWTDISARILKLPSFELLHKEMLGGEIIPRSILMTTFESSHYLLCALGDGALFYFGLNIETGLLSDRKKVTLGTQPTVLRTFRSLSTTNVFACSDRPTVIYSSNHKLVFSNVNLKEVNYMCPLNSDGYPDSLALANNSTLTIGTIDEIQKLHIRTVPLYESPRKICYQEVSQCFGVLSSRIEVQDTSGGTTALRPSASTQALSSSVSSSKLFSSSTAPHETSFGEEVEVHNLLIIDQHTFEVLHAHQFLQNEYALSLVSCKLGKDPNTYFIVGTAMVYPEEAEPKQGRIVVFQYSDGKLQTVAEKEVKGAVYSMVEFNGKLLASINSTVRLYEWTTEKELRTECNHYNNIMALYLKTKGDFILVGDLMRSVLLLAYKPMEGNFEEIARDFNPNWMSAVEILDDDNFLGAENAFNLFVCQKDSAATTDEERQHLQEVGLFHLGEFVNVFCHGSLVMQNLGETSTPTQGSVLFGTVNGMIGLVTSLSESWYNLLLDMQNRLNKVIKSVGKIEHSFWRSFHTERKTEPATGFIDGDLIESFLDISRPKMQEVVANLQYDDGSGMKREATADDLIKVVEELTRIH

Take `COc1ccc(C(=O)N2CCC3(CCN(Cc4ccc(-c5cc6c(-c7cc(F)cc(NC(=O)c8ccc(C(C)(C)O)cc8F)c7C)ncnc6[nH]5)cc4)CC3)[C@@H](CO)C2)cc1N1CCC(=O)NC1=O` (single isomer, unassigned) [Compound 2]: at BTK-GFP, the DC50 was determined as 0.0385 µM and the “BTK deg Amax” value is recorded as 4.6%. Besides, the GI50 in the assay with TMD8 cells turned out to be 0.00357 µM. For the same compound, in the assay with OCI-LY3 cells, the GI50 is over 10 µM.

As to `Cc1c(NC(=O)c2ccc(C(C)(C)O)cc2F)cc(F)cc1-c1ncnc2[nH]c(-c3ccc(CN4CCC5(CCN(CCCNC(=O)c6ccc(Cl)c(N7CCC(=O)NC7=O)c6)CC5)CC4)cc3)cc12` [Compound 57, N-(3-(6-(4-((9-(3-(4-chloro-3-(2,4-dioxotetrahydropyrimidin-1(2H)-yl)benzamido)propyl)-3,9-diazaspiro[5.5]undecan-3-yl)methyl)phenyl)-7H-pyrrolo[2,3-d]pyrimidin-4-yl)-5-fluoro-2-methylphenyl)-2-fluoro-4-(2-hydroxypropan-2-yl)benzamide], the DC50 at BTK-GFP was 0.0144 µM. Besides, the “BTK deg Amax” value on BTK-GFP was 8.9%. Also, the GI50 in the assay with TMD8 cells amounted to 0.00116 µM; in the assay on OCI-LY3 cells it was 4.4 µM.

Regarding `COc1ccc(C(=O)NCCN2CC3(CCN(Cc4ccc(-c5cc6c(-c7cc(F)cc(NC(=O)c8ccc(C(C)(C)O)cc8F)c7C)ncnc6[nH]5)cc4)CC3)C2)cc1N1CCC(=O)NC1=O` [Compound 52, N-(3-(6-(4-((2-(2-(3-(2,4-dioxotetrahydropyrimidin-1(2H)-yl)-4-methoxybenzamido)ethyl)-2,7-diazaspiro[3.5]nonan-7-yl)methyl)phenyl)-7H-pyrrolo[2,3-d]pyrimidin-4-yl)-5-fluoro-2-methylphenyl)-2-fluoro-4-(2-hydroxypropan-2-yl)benzamide], half-maximal degradation at BTK-GFP (DC50) was put at 2.58 µM. The “BTK deg Amax” value on BTK-GFP is reported as 43.7%. The GI50 with TMD8 cells is 0.0227 µM; in the assay with OCI-LY3 cells, over 10 µM.

As for `COc1ccc(C(=O)N2CCC3(CCN(Cc4ccc(-c5cc6c(-c7cc(F)cc(NC(=O)c8ccc(C(C)(C)O)cc8F)c7C)ncnc6[nH]5)cc4)CC3)C(CO)C2)cc1N1CCC(=O)NC1=O` (racemic) [Compound 1, rac-N-(3-(6-(4-((9-(3-(2,4-Dioxotetrahydropyrimidin-1(2H)-yl)-4-methoxybenzoyl)-7-(hydroxymethyl)-3,9-diazaspiro[5.5]undecan-3-yl)methyl)phenyl)-7H-pyrrolo[2,3-d]pyrimidin-4-yl)-5-fluoro-2-methylphenyl)-2-fluoro-4-(2-hydroxypropan-2-yl)benzamide], on BTK-GFP, half-maximal degradation (DC50) was put at 0.0262 µM and the “BTK deg Amax” value turned out to be 4.2%. Moreover, in the assay on TMD8 cells, the 50% growth inhibitory concentration (GI50) amounted to 0.00389 µM. For the same compound, the GI50 in the assay on OCI-LY3 cells was over 10 µM.

In the case of `COc1ccc(C(=O)N2CCC(CCN3CCC(OCc4ccc(-c5cc6c(-c7cc(F)cc(NC(=O)c8ccc(C(C)(C)O)cc8F)c7C)ncnc6[nH]5)cc4)CC3)CC2)cc1N1CCC(=O)NC1=O` [Compound 13, N-(3-(6-(4-(((1-(2-(1-(3-(2,4-Dioxotetrahydropyrimidin-1(2H)-yl)-4-methoxybenzoyl)piperidin-4-yl)ethyl)piperidin-4-yl)oxyl)methyl)phenyl)-7H-pyrrolo[2,3-d]pyrimidin-4-yl)-5-fluoro-2-methylphenyl)-2-fluoro-4-(2-hydroxypropan-2-yl)benzamide], on BTK-GFP, half-maximal degradation (DC50) was put at 0.0008 µM and the “BTK deg Amax” value is 1.8%. Moreover, the 50% growth inhibitory concentration (GI50) in the assay on TMD8 cells was 0.00018 µM. The GI50 with OCI-LY3 cells was found to be 3.39 µM.

Take `Cc1c(NC(=O)c2ccc(C(C)(C)O)cc2F)cc(F)cc1-c1ncnc2[nH]c(-c3ccc(CN4CCC5(CC4)CN(CCNC(=O)c4ccc(Cl)c(N6CCC(=O)NC6=O)c4)CCO5)cc3)cc12` [Compound 37, N-(3-(6-(4-((4-(2-(4-chloro-3-(2,4-dioxotetrahydropyrimidin-1(2H)-yl)benzamido)ethyl)-1-oxa-4,9-diazaspiro[5.5]undecan-9-yl)methyl)phenyl)-7H-pyrrolo[2,3-d]pyrimidin-4-yl)-5-fluoro-2-methylphenyl)-2-fluoro-4-(2-hydroxypropan-2-yl)benzamide]: at BTK-GFP, the DC50 is 0.0113 µM and the “BTK deg Amax” value was found to be 6.5%. Further, the GI50 with TMD8 cells was determined as 0.00193 µM. Moreover, the GI50 in the assay with OCI-LY3 cells was determined as 4.22 µM.
